Experimental data: patent US20240344145A1, “PHARMACOGENOMICS SCORE TO MAKE DECISIONS ON THERAPY AUGMENTATION IN AML” (University of Florida Research Foundation, Incorporated, priority 2021, published 2024)

Tested on: pediatric AML patients
Test: AML02 multicenter clinical trial, LDAC vs HDAC induction arms: MRD1, EFS and OS overall and by ACS10 score
Assay type: in vivo, human
Set-up: 3-year EFS / 4-year OS / 5-year OS / 4-year EFS / 5-year EFS / 3-year OS: unit not given here
Details: for Event-free Survival 5 years / Overall Survival 5 years: AML02 cohort
Method: One hundred and sixty-six pediatric AML patients treated under the multicenter AML02 clinical trial protocol were included in the study. Details of study design and clinical outcome have been described elsewhere. Briefly, patients with de novo AML were randomized to receive either high (3 g/m^2, given every 12 h on days 1, 3, and 5; this condition is designated “HDAC”) or low dose (100 mg/m^2 given every 12 h on days 1-10; this condition is designated “LDAC”) cytarabine along with daunorubicin (50 mg/m^2 on days 2, 4 and 6) and etoposide (100 mg/m^2 on days 2-6) as a first course of chemotherapy with subsequent treatment tailored to response and risk classification. For initial risk assignment, patients with cytogenetic translocations comprisingt [8;21] (e.g., translocation between chromosome 8 and 21), inv (16), ort [9;11] were classified as low-risk. Patients with features such as deletion of chromosome 7 (−7), presence of FLT3-ITD mutation (FLT-ITD), cytogenetic translocation comprisingt [6;9], megakaryoblastic leukemia (AMKL), treatment-related AML, or AML arising from MDS were classified as high-risk AML. Patients lacking any of the low or high-risk group features were provisionally classified as standard risk AML. Patient risk classifications were updated on the basis of minimal residual disease evaluations. Clinical endpoints used in this evaluation were defined as follows: i) Minimal residual disease after induction 1 (“MRD1”) (patients were defined as MRD positive if they had ≥1 leukemic cell per 1000 mononuclear bone marrow cells (≥0.1%); ii) Complete remission defined as trilineage hematopoietic recovery with less than 5% blasts in the marrow; iii) Event-free survival (“EFS”) defined as the time from study enrollment to induction failure, relapse, secondary malignancy, death, or study withdrawal for any reason, with event-free patients censored on the date of last follow-up; and iv) Overall survival (“OS”) defined as the time from study enrollment to death, with living patients censored on the date of last follow-up. St. Jude Institutional Review Board approved the study, and informed consent was obtained from parents/guardians and consents/assents from the individuals.
The association of MRD1, EFS, and OS was evaluated with ACS10 scores in the AML02 discovery cohort and the AAML0531 validation cohort. The Kaplan-Meier method was used to estimate the EFS and OS probabilities for well-defined groups of patients. Cox regression models were used to associate ACS10 with EFS and OS and used logistic regression models to associate ACS10 with MRD1. The Wilcoxon rank-sum test and Kruskal-Wallis test were used to compare medians of numeric variables across groups. Chi-square tests and Fisher's exact test were used to evaluate the association among pairs of categorical variables. All p-values are two-sided. All statistical analyses were performed using R software (www.r-project.org).
The multicenter AML02 clinical trial randomly assigned subjects to receive low dose ara-C (LDAC: 100 mg/m^2; n=91 patients) or high dose ara-C(HDAC: 3 g/m^2; n=75 patients) in combination with daunorubicin and etoposide as the first course of chemotherapy as described above in patient cohort section. Thus, the association of SNPs with outcome within each arm separately was also explored (Table 5).
Given patients in AML02 cohort were randomized to receive low or augmented high dose of ara-C, this unique opportunity was leveraged to evaluate performance of ACS10 score within the different ara-C dose treatment arms (of note LDAC and HDAC arms had similar distribution of patients across, disease characteristics, risk group, cytogenetics, race, gender etc. Table 3). […]

[1] = ACS10 score 0, risk-adjusted Cox model
[2] = ACS10 score 1, risk-adjusted Cox model
[3] = ACS10 score 2, risk-adjusted Cox model
[4] = ACS10 score 3, risk-adjusted Cox model
[5] = ACS10 score 4, risk-adjusted Cox model
[6] = ACS10 score 5, risk-adjusted Cox model
[7] = ACS10 score −1, risk-adjusted Cox model
[8] = ACS10 score −2, risk-adjusted Cox model
[9] = ACS10 score −3, risk-adjusted Cox model
[10] = ACS10 score −5, risk-adjusted Cox model
[11] = low ACS10 score (≤0) patients, AML02
[12] = number of patients per arm, after induction 1, AML02 cohort
[13] = patients with ACS10 score of +5, risk-adjusted Cox model
[14] = patients with ACS10 score of −5, risk-adjusted Cox model

Nc1ccn([C@@H]2O[C@H](CO)[C@@H](O)[C@@H]2O)c(=O)n1 [HDAC, cytarabine]
3-year EFS [1]: 0.6070
3-year OS [1]: 0.6946
4-year EFS [1]: 0.5942
4-year OS [1]: 0.6875
5-year EFS [1]: 0.5872
5-year OS [1]: 0.6875
3-year EFS [2]: 0.6247
3-year OS [2]: 0.7260
4-year EFS [2]: 0.6122
4-year OS [2]: 0.7194
5-year EFS [2]: 0.6053
5-year OS [2]: 0.7194
3-year EFS [3]: 0.6418
3-year OS [3]: 0.7550
4-year EFS [3]: 0.6297
4-year OS [3]: 0.7489
5-year EFS [3]: 0.6231
5-year OS [3]: 0.7489
3-year EFS [4]: 0.6585
3-year OS [4]: 0.7816
4-year EFS [4]: 0.6468
4-year OS [4]: 0.7760
5-year EFS [4]: 0.6403
5-year OS [4]: 0.7760
3-year EFS [5]: 0.6747
3-year OS [5]: 0.8058
4-year EFS [5]: 0.6633
4-year OS [5]: 0.8007
5-year EFS [5]: 0.6570
5-year OS [5]: 0.8007
3-year EFS [6]: 0.6903
3-year OS [6]: 0.8278
4-year EFS [6]: 0.6793
4-year OS [6]: 0.8232
5-year EFS [6]: 0.6732
5-year OS [6]: 0.8232
3-year EFS [7]: 0.5889
3-year OS [7]: 0.6609
4-year EFS [7]: 0.5758
4-year OS [7]: 0.6533
5-year EFS [7]: 0.5686
5-year OS [7]: 0.6533
3-year EFS [8]: 0.5703
3-year OS [8]: 0.6251
4-year EFS [8]: 0.5569
4-year OS [8]: 0.6170
5-year EFS [8]: 0.5496
5-year OS [8]: 0.6170
3-year EFS [9]: 0.5513
3-year OS [9]: 0.5873
4-year EFS [9]: 0.5377
4-year OS [9]: 0.5788
5-year EFS [9]: 0.5302
5-year OS [9]: 0.5788
3-year EFS [10]: 0.5123
3-year OS [10]: 0.5073
4-year EFS [10]: 0.4983
4-year OS [10]: 0.4983
5-year EFS [10]: 0.4906
5-year OS [10]: 0.4983
Event-free Survival 5 years (High ACS10 score group): 0.631 ± 0.074
Overall Survival 5 years (High ACS10 score group): 0.743 ± 0.067
Event-free Survival 5 years (Low ACS10 score group): 0.548 ± 0.089
Overall Survival 5 years (Low ACS10 score group): 0.634 ± 0.088
5 year EFS [11]: 55%
five-year OS [11]: 63%
MRDIND1 Negative (<0.1%) [12]: 43^+
MRDIND1 Positive (>=0.1%) [12]: 28^+
3-year EFS, model estimate [13]: 69.0%
3-year OS, model estimate [13]: 82.8%
3-year EFS, model estimate [14]: 51.2%
3-year OS, model estimate [14]: 50.7%
Event-free Survival 5 years (probability, whole arm): 0.597 ± 0.0569
Overall Survival 5 years (probability, whole arm): 0.699 ± 0.0537
EFS HR, low-ACS10 vs high-ACS10 score (within arm, AML02): 1.28
OS HR, low-ACS10 vs high-ACS10 score (within arm, AML02): 1.56
EFS HR for each one-point increase in ACS10 (within arm, risk-adjusted Cox model, AML02): 0.92
